By pIC50 is commonly meant the IC50 on a negative log10 scale, so that one unit is a factor of ten. Lower therefore signals a high IC50.

pIC50: −log10 of the molar value.

This test relates to HT29 cells. Put plainly: Inhibition of cell necrosis (CCK8 method), induced programmed necrosis of HT29 cells. Conditions: Homo sapiens, HT-29; rescue from necrosis induced by TNF-α 20 ng/mL, AT-406 1 μM, Z-VAD-FMK 20 μM; 16-20 hours; CCK-8, OD 450 nm. Format: cell-based. A digest of the protocol: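 HT29 cells in McCOY's 5A with 10% FBS were pre-treated for 30 min with compound (9 fourfold steps, 25000 to 0.38 nM final, 0.25% DMSO). Necrosis was then induced with TNF-α 20 ng/mL, AT-406 1 μM and Z-VAD-FMK 20 μM for 16-20 h. Viability was read by CCK-8 OD450, normalized between uninduced and induced wells, and IC50 was curve-fitted.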
For `CCC(O)(CC)CCCOc1ccc(C)c(-c2cc(NC(=O)c3nnc(CC4CCCCC4)[nH]3)ncc2F)c1` [Example 243, 5-(cyclohexylmethyl)-N-(4-(5-((4-ethyl-4-hydroxyhexyl)oxy)-2-methylphenyl)-5-fluoropyridin-2-yl)-4H-1,2,4-triazole-3-carboxamide], the pIC50 is no less than 7.00.

Compound `CCC(O)(CC)CCCOc1ccc(C)c(-c2cc(NC(=O)c3nnc(Cc4ccccc4F)[nH]3)ncc2Cl)c1` [Example 244, N-(5-chloro-4-(5-((4-ethyl-4-hydroxyhexyl)oxy)-2-methylphenyl)pyridin-2-yl)-5-(2-fluorobenzyl)-4H-1,2,4-triazole-3-carboxamide] showed a pIC50 of no less than 7.00. The value for `CCC(O)(CC)CCCOc1ccc(C)c(-c2cc(NC(=O)c3nnc(CC4CCCCC4)[nH]3)ncc2Cl)c1` [Example 245, N-(5-chloro-4-(5-((4-ethyl-4-hydroxyhexyl)oxy)-2-methylphenyl)pyridin-2-yl)-5-(cyclohexylmethyl)-4H-1,2,4-triazole-3-carboxamide] was no less than 7.00; that for `CCC(O)(CC)CCCOc1ccc(C)c(-c2cc(NC(=O)c3nnc(CC4CCCCC4)[nH]3)ncc2C)c1` [Example 246, 5-(cyclohexylmethyl)-N-(4-(5-((4-ethyl-4-hydroxyhexyl)oxy)-2-methylphenyl)-5-methylpyridin-2-yl)-4H-1,2,4-triazole-3-carboxamide] was 6.00 to 7.00.

Turning to `Cc1ccc(OCCCCC(C)(C)O)cc1-c1cc(NC(=O)c2nnc(Cc3ccccc3F)[nH]2)ncc1Cl` [Example 247, N-(5-chloro-4-(5-((5-hydroxyl-5-methylhexyl)oxy)-2-methylphenyl)pyridin-2-yl)-5-(2-fluorobenzyl)-4H-1,2,4-triazole-3-carboxamide], the pIC50 was 6.00 to 7.00.

As to `Cc1ccc(OCCCCC(C)(C)O)cc1-c1cc(NC(=O)c2nnc(CC3CCCCC3)[nH]2)ncc1Cl` [Example 248, 5-(cyclohexylmethyl)-N-(5-chloro-4-(5-((5-hydroxyl-5-methylhexyl)oxy)-2-methylphenyl)pyridin-2-yl)-4H-1,2,4-triazole-3-carboxamide], the pIC50 was 6.00 to 7.00. `Cc1ccc(OCC2CCOCC2)cc1-c1cc(NC(=O)c2nnc(Cc3ccccc3F)[nH]2)ncc1Cl` [Example 249, N-(5-chloro-4-(2-methyl-5-((tetrahydro-2H-pyran-4-yl)methoxy)phenyl)pyridin-2-yl)-5-(2-fluorobenzyl)-4H-1,2,4-triazole-3-carboxamide] had a pIC50 of 6.00 to 7.00. To `Cc1ccc(OCC2CCOCC2)cc1-c1cc(NC(=O)c2nnc(CC3CCCCC3)[nH]2)ncc1Cl` [Example 250, N-(5-chloro-4-(2-methyl-5-((tetrahydro-2H-pyran-4-yl)methoxy)phenyl)pyridin-2-yl)-5-(cyclohexylmethyl)-4H-1,2,4-triazole-3-carboxamide] belongs no less than 7.00; to `Cc1ccc(OCCC2CCOCC2)cc1-c1cc(NC(=O)c2nnc(Cc3ccccc3F)[nH]2)ncc1Cl` [Example 251, N-(5-chloro-4-(2-methyl-5-(2-(tetrahydro-2H-pyran-4-yl)ethoxy)phenyl)pyridin-2-yl)-5-(2-fluorobenzyl)-4H-1,2,4-triazole-3-carboxamide], no less than 7.00; to `Cc1ccc(OCCC2CCOCC2)cc1-c1cc(NC(=O)c2nnc(CC3CCCCC3)[nH]2)ncc1Cl` [Example 252, N-(5-chloro-4-(2-methyl-5-(2-(tetrahydro-2H-pyran-4-yl)ethoxy)phenyl)pyridin-2-yl)-5-(cyclohexylmethyl)-4H-1,2,4-triazole-3-carboxamide], no less than 7.00. The value for `Cc1ccc(OCCC2CCOCC2)cc1-c1cc(NC(=O)c2nnc(Cc3ccccc3F)[nH]2)ncc1C` [Example 253, 5-(2-fluorobenzyl)-N-(5-methyl-4-(2-methyl-5-(2-(tetrahydro-2H-pyran-4-yl)ethoxy)phenyl)pyridin-2-yl)-4H-1,2,4-triazole-3-carboxamide] was 6.00 to 7.00; that for `Cc1ccc(OCCC2CCOCC2)cc1-c1cc(NC(=O)c2nnc(CC3CCCCC3)[nH]2)ncc1C` [Example 254, 5-(cyclohexylmethyl)-N-(5-methyl-4-(2-methyl-5-(2-(tetrahydro-2H-pyran-4-yl)ethoxy)phenyl)pyridin-2-yl)-4H-1,2,4-triazole-3-carboxamide] was 6.00 to 7.00. In the case of `CC(C)(O)CCCOc1ccc(C(F)(F)F)c(-c2ccnc(NC(=O)c3nnc(Cc4ccccc4F)[nH]3)c2)c1` [Example 255, 5-(2-fluorobenzyl)-N-(4-(5-((4-hydroxy-4-methylpentyl)oxy)-2-(trifluoromethyl)phenyl)pyridin-2-yl)-4H-1,2,4-triazole-3-carboxamide], the negative-log IC50 (pIC50) was no less than 7.00.

`CC(C)(O)CCCOc1ccc(C(F)(F)F)c(-c2ccnc(NC(=O)c3nnc(Cc4cccc(F)c4)[nH]3)c2)c1` [Example 256, 5-(3-fluorobenzyl)-N-(4-(5-((4-hydroxy-4-methylpentyl)oxy)-2-(trifluoromethyl)phenyl)pyridin-2-yl)-4H-1,2,4-triazole-3-carboxamide] showed a negative-log IC50 (pIC50) of no less than 7.00. Compound `CC(C)(O)CCCOc1ccc(C(F)(F)F)c(-c2ccnc(NC(=O)c3nnc(Cc4ccc(F)cc4)[nH]3)c2)c1` [Example 257, 5-(4-fluorobenzyl)-N-(4-(5-((4-hydroxy-4-methylpentyl)oxy)-2-(trifluoromethyl)phenyl)pyridin-2-yl)-4H-1,2,4-triazole-3-carboxamide] had a pIC50 of no less than 7.00. For the compound `CC(C)(O)CCCOc1ccc(C(F)(F)F)c(-c2ccnc(NC(=O)c3nnc(CC4CCCC4)[nH]3)c2)c1` [Example 258, 5-(cyclopentylmethyl)-N-(4-(5-((4-hydroxy-4-methylpentyl)oxy)-2-(trifluoromethyl)phenyl)pyridin-2-yl)-4H-1,2,4-triazole-3-carboxamide], the pIC50 was no less than 7.00. As for `CC(C)(O)CCCOc1ccc(C(F)(F)F)c(-c2ccnc(NC(=O)c3nnc(CC4CCCCC4)[nH]3)c2)c1` [Example 259, 5-(cyclohexylmethyl)-N-(4-(5-((4-hydroxy-4-methylpentyl)oxy)-2-(trifluoromethyl)phenyl)pyridin-2-yl)-4H-1,2,4-triazole-3-carboxamide], the pIC50 is no less than 7.00. With `CCC(O)(CC)CCCOc1ccc(C(F)(F)F)c(-c2ccnc(NC(=O)c3nnc(Cc4ccccc4)[nH]3)c2)c1` [Example 260, 5-benzyl-N-(4-(5-((4-ethyl-4-hydroxyhexyl)oxy)-2-(trifluoromethyl)phenyl)pyridin-2-yl)-4H-1,2,4-triazole-3-carboxamide], the pIC50 was no less than 7.00. To `CCC(O)(CC)CCCOc1ccc(C(F)(F)F)c(-c2ccnc(NC(=O)c3nnc(Cc4ccccc4F)[nH]3)c2)c1` [Example 261, 5-(2-fluorobenzyl)-N-(4-(5-((4-ethyl-4-hydroxyhexyl)oxy)-2-(trifluoromethyl)phenyl)pyridin-2-yl)-4H-1,2,4-triazole-3-carboxamide] belongs no less than 7.00. `CCC(O)(CC)CCCOc1ccc(C(F)(F)F)c(-c2ccnc(NC(=O)c3nnc(CC4CCCC4)[nH]3)c2)c1` [Example 262, 5-(cyclopentylmethyl)-N-(4-(5-((4-ethyl-4-hydroxyhexyl)oxy)-2-(trifluoromethyl)phenyl)pyridin-2-yl)-4H-1,2,4-triazole-3-carboxamide]: the pIC50 is no less than 7.00. The value for `CCC(O)(CC)CCCOc1ccc(C(F)(F)F)c(-c2ccnc(NC(=O)c3nnc(CC4CCCCC4)[nH]3)c2)c1` [Example 263, 5-(cyclohexylmethyl)-N-(4-(5-((4-ethyl-4-hydroxyhexyl)oxy)-2-(trifluoromethyl)phenyl)pyridin-2-yl)-4H-1,2,4-triazole-3-carboxamide] was no less than 7.00. The value for `CC(C)(O)COc1ccc(C(F)(F)F)c(-c2ccnc(NC(=O)c3nnc(Cc4ccccc4)[nH]3)c2)c1` [Example 264, 5-benzyl-N-(4-(5-(2-hydroxyl-2-methylpropoxy)-2-(trifluoromethyl)phenyl)pyridin-2-yl)-4H-1,2,4-triazole-3-carboxamide] was no less than 7.00; that for `CC(C)(O)COc1ccc(C(F)(F)F)c(-c2ccnc(NC(=O)c3nnc(Cc4ccccc4F)[nH]3)c2)c1` [Example 265, 5-(2-fluorobenzyl)-N-(4-(5-(2-hydroxyl-2-methylpropoxy)-2-(trifluoromethyl)phenyl)pyridin-2-yl)-4H-1,2,4-triazole-3-carboxamide] was 6.00 to 7.00; that for `CC(C)(O)COc1ccc(C(F)(F)F)c(-c2ccnc(NC(=O)c3nnc(CC4CCCC4)[nH]3)c2)c1` [Example 266, 5-(cyclopentylmethyl)-N-(4-(5-(2-hydroxyl-2-methylpropoxy)-2-(trifluoromethyl)phenyl)pyridin-2-yl)-4H-1,2,4-triazole-3-carboxamide] was no less than 7.00. The value for `CC(C)(O)COc1ccc(C(F)(F)F)c(-c2ccnc(NC(=O)c3nnc(CC4CCCCC4)[nH]3)c2)c1` [Example 267, 5-(cyclohexylmethyl)-N-(4-(5-(2-hydroxyl-2-methylpropoxy)-2-(trifluoromethyl)phenyl)pyridin-2-yl)-4H-1,2,4-triazole-3-carboxamide] was no less than 7.00; that for `CC(C)(O)CCCCOc1ccc(C(F)(F)F)c(-c2ccnc(NC(=O)c3nnc(Cc4ccccc4)[nH]3)c2)c1` [Example 268, 5-benzyl-N-(4-(5-((5-hydroxyl-5-methylhexyl)oxy)-2-(trifluoromethyl)phenyl)pyridin-2-yl)-4H-1,2,4-triazole-3-carboxamide] was no less than 7.00. In turn, `CC(C)(O)CCCCOc1ccc(C(F)(F)F)c(-c2ccnc(NC(=O)c3nnc(Cc4ccccc4F)[nH]3)c2)c1` [Example 269, 5-(2-fluorobenzyl)-N-(4-(5-((5-hydroxyl-5-methylhexyl)oxy)-2-(trifluoromethyl)phenyl)pyridin-2-yl)-4H-1,2,4-triazole-3-carboxamide] showed a pIC50 of no less than 7.00.

For the origin of these results see patent publication US12435060B2, “Acylamino bridged heterocyclic compound, and composition and application thereof” (BEIJING SCITECH-MQ PHARMACEUTICALS LIMITED, priority 2019, dated 2025).
